Experiments:
[1] = biological target: T1, AKT1 (Homo sapiens, UniProt P31749); assay: Kinase activity in cell-free assay (HotSpot); format: biochemical
T1 construct: purchased Reaction Biology Corp
Experimental: (§1) Kinase activity in the presence of C96 was performed by using the HotSpot technology (Reaction Biology Corp., Malvern, PA, USA). Briefly, kinases (PI3Kα, β, δ, γ, AKT1, 2, 3, and mTOR) and substrates were diluted in reaction buffer. Subsequently, 5 nL of serially diluted C96 (in pure DMSO) was delivered into diluted kinase and substrate mixture by using Echo 550 (LabCyte Inc. Sunnyvale, CA). The reaction was started by adding ^33P-ATP (hot ATP) into the reaction mixture (the final concentration was 10 μM) and stopped after 2 hrs incubation at room temperature. The un-reacted hot ATP was washed away before detection.

[2] = biological target: T2, AKT2 (Homo sapiens, UniProt P31751); assay: Kinase activity in cell-free assay (HotSpot); format: biochemical
T2 construct: purchased Reaction Biology Corp
T2 sequence (P31751 whole entry): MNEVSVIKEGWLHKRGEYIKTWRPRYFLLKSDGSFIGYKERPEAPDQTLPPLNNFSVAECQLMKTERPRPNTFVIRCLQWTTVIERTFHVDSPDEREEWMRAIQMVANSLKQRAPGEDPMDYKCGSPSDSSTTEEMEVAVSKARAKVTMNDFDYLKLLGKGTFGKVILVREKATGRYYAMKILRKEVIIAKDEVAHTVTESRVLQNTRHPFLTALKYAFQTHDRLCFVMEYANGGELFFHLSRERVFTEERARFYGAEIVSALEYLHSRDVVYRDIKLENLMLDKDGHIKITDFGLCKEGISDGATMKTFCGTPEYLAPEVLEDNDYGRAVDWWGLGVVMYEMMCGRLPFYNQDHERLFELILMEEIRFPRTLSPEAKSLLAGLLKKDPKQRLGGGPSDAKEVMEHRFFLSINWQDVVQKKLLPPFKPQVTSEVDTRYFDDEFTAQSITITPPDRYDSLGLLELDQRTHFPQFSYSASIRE
Experimental: as §1

[3] = biological target: T3, AKT3 (Homo sapiens, UniProt Q9Y243); assay: Kinase activity in cell-free assay (HotSpot); format: biochemical
T3 construct: purchased Reaction Biology Corp
T3 sequence (Q9Y243 whole entry): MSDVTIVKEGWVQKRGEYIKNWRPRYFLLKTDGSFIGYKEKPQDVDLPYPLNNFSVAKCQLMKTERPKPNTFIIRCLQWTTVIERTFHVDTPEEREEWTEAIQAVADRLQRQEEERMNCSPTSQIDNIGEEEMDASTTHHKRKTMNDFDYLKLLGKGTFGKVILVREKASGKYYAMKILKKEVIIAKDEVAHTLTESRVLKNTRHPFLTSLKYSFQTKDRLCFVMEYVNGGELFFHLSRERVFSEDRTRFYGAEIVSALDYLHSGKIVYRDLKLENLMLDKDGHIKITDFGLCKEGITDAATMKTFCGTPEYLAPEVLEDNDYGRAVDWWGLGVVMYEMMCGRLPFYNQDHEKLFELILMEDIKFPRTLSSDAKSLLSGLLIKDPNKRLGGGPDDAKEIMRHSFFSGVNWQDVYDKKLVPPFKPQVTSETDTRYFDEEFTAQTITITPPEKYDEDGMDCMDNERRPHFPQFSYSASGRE
Experimental: as §1

[4] = biological target: T4, PI3Kα (Homo sapiens, UniProt P42336); assay: Kinase activity in cell-free assay (HotSpot); format: biochemical
T4 construct: purchased Reaction Biology Corp
T4 sequence (P42336 whole entry): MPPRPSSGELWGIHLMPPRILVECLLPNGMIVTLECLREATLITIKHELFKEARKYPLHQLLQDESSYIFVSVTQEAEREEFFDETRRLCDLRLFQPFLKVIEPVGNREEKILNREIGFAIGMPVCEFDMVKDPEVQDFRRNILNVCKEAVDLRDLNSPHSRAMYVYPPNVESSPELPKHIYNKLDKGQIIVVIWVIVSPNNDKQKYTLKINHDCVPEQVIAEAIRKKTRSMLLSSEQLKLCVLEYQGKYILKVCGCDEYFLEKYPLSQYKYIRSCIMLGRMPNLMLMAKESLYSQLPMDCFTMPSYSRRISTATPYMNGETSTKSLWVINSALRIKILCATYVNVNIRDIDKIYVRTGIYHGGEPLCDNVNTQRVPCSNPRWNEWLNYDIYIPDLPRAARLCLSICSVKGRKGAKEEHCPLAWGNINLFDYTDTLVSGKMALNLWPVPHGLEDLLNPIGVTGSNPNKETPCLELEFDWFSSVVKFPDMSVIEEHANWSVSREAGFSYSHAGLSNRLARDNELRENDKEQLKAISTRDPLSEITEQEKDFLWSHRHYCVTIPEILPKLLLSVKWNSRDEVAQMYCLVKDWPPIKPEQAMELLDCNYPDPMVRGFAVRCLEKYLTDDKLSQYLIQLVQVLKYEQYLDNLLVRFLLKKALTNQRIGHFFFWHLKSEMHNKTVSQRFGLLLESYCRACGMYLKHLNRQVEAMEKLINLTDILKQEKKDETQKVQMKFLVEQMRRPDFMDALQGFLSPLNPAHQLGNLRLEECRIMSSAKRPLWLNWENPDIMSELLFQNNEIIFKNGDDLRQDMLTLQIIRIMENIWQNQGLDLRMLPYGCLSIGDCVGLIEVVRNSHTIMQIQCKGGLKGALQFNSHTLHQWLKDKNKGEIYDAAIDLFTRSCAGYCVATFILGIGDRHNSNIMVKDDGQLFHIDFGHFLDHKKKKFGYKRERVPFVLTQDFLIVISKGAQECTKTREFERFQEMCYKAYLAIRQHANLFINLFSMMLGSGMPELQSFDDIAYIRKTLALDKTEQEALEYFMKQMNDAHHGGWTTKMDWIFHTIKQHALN
T4 sequence (P27986 whole entry partner): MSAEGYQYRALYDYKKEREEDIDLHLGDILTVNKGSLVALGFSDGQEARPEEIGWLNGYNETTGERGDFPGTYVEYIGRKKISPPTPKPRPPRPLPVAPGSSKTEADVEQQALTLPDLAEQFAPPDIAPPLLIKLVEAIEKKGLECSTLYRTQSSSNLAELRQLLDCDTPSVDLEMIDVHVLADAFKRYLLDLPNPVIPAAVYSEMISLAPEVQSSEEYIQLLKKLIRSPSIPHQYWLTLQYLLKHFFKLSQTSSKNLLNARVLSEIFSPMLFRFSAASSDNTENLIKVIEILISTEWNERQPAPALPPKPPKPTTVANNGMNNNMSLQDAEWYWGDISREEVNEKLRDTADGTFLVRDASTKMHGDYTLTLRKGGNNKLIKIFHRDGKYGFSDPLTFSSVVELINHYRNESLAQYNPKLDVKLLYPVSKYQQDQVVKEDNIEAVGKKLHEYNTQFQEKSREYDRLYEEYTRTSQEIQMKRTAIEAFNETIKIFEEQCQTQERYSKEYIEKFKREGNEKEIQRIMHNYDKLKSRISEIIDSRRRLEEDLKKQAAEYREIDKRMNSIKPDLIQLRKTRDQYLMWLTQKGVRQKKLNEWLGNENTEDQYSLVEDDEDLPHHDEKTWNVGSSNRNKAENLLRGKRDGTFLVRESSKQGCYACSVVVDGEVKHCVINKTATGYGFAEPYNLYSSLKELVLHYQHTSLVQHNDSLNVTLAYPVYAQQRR
Experimental: as §1

[5] = biological target: T5, PI3Kβ (Homo sapiens, UniProt P42338); assay: Kinase activity in cell-free assay (HotSpot); format: biochemical
T5 construct: purchased Reaction Biology Corp
Experimental: as §1

[6] = biological target: T6, PI3Kγ (Homo sapiens, UniProt P48736); assay: Kinase activity in cell-free assay (HotSpot); format: biochemical
T6 construct: purchased Reaction Biology Corp
Experimental: as §1

[7] = biological target: T7, PI3Kδ (Homo sapiens, UniProt O00329); assay: Kinase activity in cell-free assay (HotSpot); format: biochemical
T7 construct: purchased Reaction Biology Corp
T7 sequence (O00329 whole entry): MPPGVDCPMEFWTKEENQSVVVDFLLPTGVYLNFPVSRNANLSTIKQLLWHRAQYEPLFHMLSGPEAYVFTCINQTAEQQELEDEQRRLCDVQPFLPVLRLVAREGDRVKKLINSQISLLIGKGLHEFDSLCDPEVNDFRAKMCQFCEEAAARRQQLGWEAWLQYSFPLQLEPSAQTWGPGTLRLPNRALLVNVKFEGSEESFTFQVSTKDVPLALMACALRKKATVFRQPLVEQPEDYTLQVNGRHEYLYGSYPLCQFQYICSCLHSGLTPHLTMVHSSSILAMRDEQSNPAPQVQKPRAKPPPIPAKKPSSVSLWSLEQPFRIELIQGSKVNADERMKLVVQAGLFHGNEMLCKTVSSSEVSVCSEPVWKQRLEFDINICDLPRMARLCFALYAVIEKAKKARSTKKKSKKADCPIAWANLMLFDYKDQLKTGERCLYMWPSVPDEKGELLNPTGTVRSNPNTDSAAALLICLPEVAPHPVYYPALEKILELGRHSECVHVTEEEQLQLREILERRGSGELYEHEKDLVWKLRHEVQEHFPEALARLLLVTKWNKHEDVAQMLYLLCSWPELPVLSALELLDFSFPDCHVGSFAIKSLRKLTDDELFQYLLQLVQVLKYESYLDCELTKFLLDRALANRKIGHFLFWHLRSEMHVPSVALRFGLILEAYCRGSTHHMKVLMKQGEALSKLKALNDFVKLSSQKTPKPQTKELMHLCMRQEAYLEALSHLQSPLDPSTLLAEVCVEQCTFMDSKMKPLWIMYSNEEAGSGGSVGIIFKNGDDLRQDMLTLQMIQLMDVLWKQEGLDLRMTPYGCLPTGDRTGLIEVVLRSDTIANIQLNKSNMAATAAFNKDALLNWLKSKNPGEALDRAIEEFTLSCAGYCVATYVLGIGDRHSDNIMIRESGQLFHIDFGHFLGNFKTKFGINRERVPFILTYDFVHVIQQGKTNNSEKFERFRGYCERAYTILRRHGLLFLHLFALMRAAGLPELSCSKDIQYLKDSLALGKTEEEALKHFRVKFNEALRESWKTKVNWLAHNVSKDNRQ
T7 sequence (P27986 whole entry partner): as the sequence (P27986 whole entry partner) above
Experimental: as §1

[8] = biological target: T8, mTOR (Homo sapiens, UniProt P42345); assay: Kinase activity in cell-free assay (HotSpot); format: biochemical
T8 construct: purchased Reaction Biology Corp
Experimental: as §1

[9] = tested on: OPM2 cells; assay: Cell migration analysis by the transwell assay; format: cell-based; conditions: 6 hrs
Experimental: Next, we evaluated the effects of C96 on MM cell growth by measuring viable cells after starvation/IGF-1 stimulation in the presence of C96. As shown in Supplemental Figure 2A, IGF-1 stimulated MM cell growth, but it was suppressed by C96. We also examined the effects of C96 on MM cell migration upon IGF-1 stimulation.
This assay was performed as described previously. Briefly, MM cells OPM2, JJN3 and LP1 were serum starved overnight and then re-suspended in 70 μL of IMDM medium/0.5% fetal calf serum with or without C96. These cells were then loaded onto polycarbonate membranes (8-μm pore size) separating 2 chambers of a transwell (Corning Costar, Cambridge, MA). Medium/0.1% FCS (500 μL) containing agonist IGF-1 was added to the lower chamber of the Transwell cluster plates. After 6 hrs, cells migrating into the lower chamber were counted using a hemacytometer.
Supplementary Figure S2: C96 inhibits MM cell proliferation and migration in the presence of IGF-1. […] Cells were then incubated for another 24 hr, cell number was analyzed using MTT staining. […] Cells were loaded onto the upper chamber of a transwell, and the lower chamber was filled with IMDM containing agonist IGF-1.After 6 hrs, cells migrating into the lower chamber were counted using a hemacytometer. […]

T1 sequence (P31749 whole entry): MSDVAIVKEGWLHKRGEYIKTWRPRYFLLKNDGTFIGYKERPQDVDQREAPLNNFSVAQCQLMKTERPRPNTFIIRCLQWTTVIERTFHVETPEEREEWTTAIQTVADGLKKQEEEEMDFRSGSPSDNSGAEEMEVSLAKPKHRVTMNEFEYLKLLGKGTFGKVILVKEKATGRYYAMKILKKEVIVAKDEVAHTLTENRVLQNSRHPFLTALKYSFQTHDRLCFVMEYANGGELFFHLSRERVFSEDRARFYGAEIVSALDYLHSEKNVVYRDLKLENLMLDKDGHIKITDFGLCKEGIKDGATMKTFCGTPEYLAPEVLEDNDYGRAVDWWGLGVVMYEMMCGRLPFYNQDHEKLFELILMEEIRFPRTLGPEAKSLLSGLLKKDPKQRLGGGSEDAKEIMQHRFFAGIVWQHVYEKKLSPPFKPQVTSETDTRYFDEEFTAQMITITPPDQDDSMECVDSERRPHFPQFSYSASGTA

O=C1NC(=O)C(=CC=Cc2cccs2)C(=O)N1 [C96, 5-(3-(2-thienyl)-2-propen-1-ylidene)-2,4,6(1H,3H,5H)-pyrimidinetrione]
enzymatic activity AKT1 ([1]; 300 μM): higher than 50% | AKT1 catalytic activity ([1]; C96 1.00E-04 M): 89.13% | AKT1 catalytic activity ([1]; C96 1.11E-05 M): 104.72% | AKT1 catalytic activity ([1]; C96 1.23E-06 M): 101.71% | AKT1 catalytic activity ([1]; C96 1.37E-07 M): 102.27% | AKT1 catalytic activity ([1]; C96 1.52E-08 M): 94.32% | AKT1 catalytic activity ([1]; C96 3.00E-04 M): 57.61% | AKT1 catalytic activity ([1]; C96 3.33E-05 M): 100.86% | AKT1 catalytic activity ([1]; C96 3.70E-06 M): 110.72% | AKT1 catalytic activity ([1]; C96 4.12E-07 M): 99.76% | AKT1 catalytic activity ([1]; C96 4.57E-08 M): 103.80% | IC50 AKT1 ([1]; cell-free): not detectable | enzymatic activity AKT2 ([2]; 300 μM): higher than 50% | AKT2 catalytic activity ([2]; C96 1.11E-05 M): 102.16% | AKT2 catalytic activity ([2]; C96 1.23E-06 M): 97.18% | AKT2 catalytic activity ([2]; C96 1.37E-07 M): 97.27% | AKT2 catalytic activity ([2]; C96 1.52E-08 M): 95.67% | AKT2 catalytic activity ([2]; C96 3.00E-04 M): 86.10% | AKT2 catalytic activity ([2]; C96 3.33E-05 M): 100.38% | AKT2 catalytic activity ([2]; C96 3.70E-06 M): 102.25% | AKT2 catalytic activity ([2]; C96 4.12E-07 M): 100.48% | AKT2 catalytic activity ([2]; C96 4.57E-08 M): 100.26% | IC50 AKT2 ([2]; cell-free): not detectable | enzymatic activity AKT3 ([3]; 300 μM): higher than 50% | AKT3 catalytic activity ([3]; C96 1.00E-04 M): 98.26% | AKT3 catalytic activity ([3]; C96 1.11E-05 M): 100.98% | AKT3 catalytic activity ([3]; C96 1.23E-06 M): 100.31% | AKT3 catalytic activity ([3]; C96 1.37E-07 M): 100.29% | AKT3 catalytic activity ([3]; C96 1.52E-08 M): 109.49% | AKT3 catalytic activity ([3]; C96 3.00E-04 M): 79.18% | AKT3 catalytic activity ([3]; C96 3.33E-05 M): 108.59% | AKT3 catalytic activity ([3]; C96 3.70E-06 M): 117.76% | AKT3 catalytic activity ([3]; C96 4.12E-07 M): 106.62% | AKT3 catalytic activity ([3]; C96 4.57E-08 M): 102.54% | IC50 AKT3 ([3]; cell-free): not detectable | EC50 [4]: ~5 µM | IC50 [4]: 5.41 µM | IC50 [5]: 134 µM | IC50 [6]: 116 µM | EC50 [7]: ~5 µM | IC50 [7]: 7.05 µM | enzymatic activity mTOR ([8]; 300 μM): higher than 50% | mTOR catalytic activity ([8]; C96 1.00E-04 M): 101.78% | mTOR catalytic activity ([8]; C96 1.11E-05 M): 102.93% | mTOR catalytic activity ([8]; C96 1.23E-06 M): 99.81% | mTOR catalytic activity ([8]; C96 1.37E-07 M): 100.28% | mTOR catalytic activity ([8]; C96 1.52E-08 M): 96.95% | mTOR catalytic activity ([8]; C96 3.00E-04 M): 102.57% | mTOR catalytic activity ([8]; C96 3.33E-05 M): 100.02% | mTOR catalytic activity ([8]; C96 3.70E-06 M): 101.74% | mTOR catalytic activity ([8]; C96 4.12E-07 M): 99.37% | mTOR catalytic activity ([8]; C96 4.57E-08 M): 99.19% | IC50 mTOR ([8]; cell-free): not detectable | migration through 8-micrometer transwell membrane in the presence of IGF-1 [9]: partly suppressed

Reference: paper PMC4116524, “A virtual screen identified C96 as a novel inhibitor of phosphatidylinositol 3-kinase that displays potent preclinical activity against multiple myeloma in vitro and in vivo” (Oncotarget, 2014)
